# Reference: patent publication US9701664B2, “Fused 1,4-dihydrodioxin derivatives as inhibitors of heat shock transcription factor 1” (Cancer Research Technology Limited, priority 2013, dated 2017)
# pIC50: −log10 of the molar value.
# System: U2OS cells
# Assay: Titre Blue cell viability assay, U2OS cells
# Type: cell-based
# Settings: Homo sapiens, U2OS
row,SMILES,pIC50
1,"Cc1ccc(NC(=O)c2ccc3c(c2)OCCO3)cc1NC(=O)c1cnc2ccncc2c1 [Example 43, N-(5-(2,3-dihydrobenzo[b][1,4]dioxine-6-carboxamido)-2-methylphenyl)-1,6-naphthyridine-3-carboxamide]",7.47
2,"COc1ccc(C(=O)Nc2cc(NC(=O)c3ccc4c(c3)OCCO4)ccc2C)cc1 [Example 27, N-(3-(4-methoxybenzamido)-4-methylphenyl)-2,3-dihydrobenzo[b][1,4]dioxine-6-carboxamide]",6.97
3,"Cc1ccc(NC(=O)c2ccc3c(c2)OCCO3)cc1NC(=O)c1ccc(Nc2cccc(OC3CCN(C)CC3)c2)nc1 [Example 121, N-(5-(2,3-dihydrobenzo[b][1,4]dioxine-6-carboxamido)-2-methylphenyl)-6-(3-(1-methylpiperidin-4-yloxy)phenylamino)nicotinamide]",6.47
4,"Cc1ccc(NC(=O)c2ccc3c(c2)OCCO3)cc1NC(=O)c1ccc2nc(C(F)(F)F)[nH]c2c1 [Example 90, N-(5-(2,3-dihydrobenzo[b][1,4]dioxine-6-carboxamido)-2-methylphenyl)-2-(trifluoromethyl)-1H-benzo[d]imidazole-6-carboxamide]",5.86

# System: HSP72 in U2OS cells
# Assay: Cell-based ELISA (Cellisa) assay, U2OS cells: inhibition of 17-AAG-induced HSP72
# Settings: Homo sapiens; U2OS cells (Examples 1-168)
# Method: U2OS cells (5-8×10^4 cells/mL) or SK-OV-3 cells (5-8×10^4 cells/mL) were seeded into 96-well plates and incubated at 37° C. for 48 h. Compounds were then added at a range of concentrations and incubated for 1 h before addition of 17-AAG (250 nM). Cells were then incubated for 18 h. The medium was removed washed 2× with PBS and cells were then fixed with fixing solution (4% paraformaldehyde, 0.3% TritonX-100 in PBS) for 30 min at 4° C. The plates were then washed 2× with PBS before blocking with 5% milk for 30 min at 37° C. After washing the plates 4× with 0.1% Tween-20/deionised water, HSP72 antibody (SPA-810, Enzo Life) was added for 1.5 h at 37° C. Following 4× washes, the plates were incubated with europium-labelled anti-mouse antibody (0.6 ug/ml) in Delfia assay buffer (Perkin Elmer) for 1 h at 37° C. After washing the plates, Delfia enhancement solution was added, shaken for 10 min before reading in the Envision plate reader (Perkin-Elmer) with excitation at 340 nm and emission at 615 nm. The plates were washed again before protein determination using the bicinchoninic acid assay (BCA assay, Pierce Biotechnology). The europium counts were normalised for the amount of protein in each well. The 50% inhibitory concentration value of the compound was then calculated.
row,SMILES,pIC50
1,"Cc1ccc(NC(=O)c2ccc3c(c2)OCCO3)cc1NC(=O)c1cnc2ccncc2c1 [Example 43, N-(5-(2,3-dihydrobenzo[b][1,4]dioxine-6-carboxamido)-2-methylphenyl)-1,6-naphthyridine-3-carboxamide]",7.66
2,"COc1ccc(C(=O)Nc2cc(NC(=O)c3ccc4c(c3)OCCO4)ccc2C)cc1 [Example 27, N-(3-(4-methoxybenzamido)-4-methylphenyl)-2,3-dihydrobenzo[b][1,4]dioxine-6-carboxamide]",6.43
3,"Cc1ccc(NC(=O)c2ccc3c(c2)OCCO3)cc1NC(=O)c1ccc2nc(Cl)ccc2c1 [Example 12, 2-chloro-N-(5-(2,3-dihydrobenzo[b][1,4]dioxine-6-carboxamido)-2-methylphenyl)quinoline-6-carboxamide]",7.29
4,"Cc1ccc(NC(=O)c2ccc3c(c2)OCCO3)cc1NC(=O)c1ccc2c(c1)CCN(C(=O)OC(C)(C)C)C2 [Example 31, tert-butyl 6-((5-(2,3-dihydrobenzo[b][1,4]dioxine-6-carboxamido)-2-methylphenyl)carbamoyl)-3,4-dihydroisoquinoline-2(1H)-carboxylate]",6.26
5,"Cc1ccc(NC(=O)c2ccc3c(c2)OCCO3)cc1NC(=O)c1ccc2c(c1)CCNC2 [Example 88, N-(5-(2,3-dihydrobenzo[b][1,4]dioxine-6-carboxamido)-2-methylphenyl)-1,2,3,4-tetrahydroisoquinoline-6-carboxamide]",6.11
6,"Cc1ccc2cc(C(=O)Nc3cc(NC(=O)c4cc5c(cc4F)OCCO5)ccc3C)ccc2n1 [Example 130, N-(5-(7-fluoro-2,3-dihydrobenzo[b][1,4]dioxine-6-carboxamido)-2-methylphenyl)-2-methylquinoline-6-carboxamide]",6.81
7,"Cc1ccc(NC(=O)c2ccc3c(c2)OCCO3)cc1NC(=O)c1cnc2cccc(CCO)c2c1 [Example 157, N-(5-(2,3-dihydrobenzo[b][1,4]dioxine-6-carboxamido)-2-methylphenyl)-5-(2-hydroxyethyl)quinoline-3-carboxamide]",6.66
8,"COCCOc1cc(C(=O)Nc2cc(NC(=O)c3ccc4c(c3)OCCO4)ccc2C)cc2cccnc12 [Example 160, N-(5-(2,3-dihydrobenzo[b][1,4]dioxine-6-carboxamido)-2-methylphenyl)-8-(2-methoxyethoxy)quinoline-6-carboxamide]",6.42
9,"Cc1ccc(NC(=O)c2ccc3c(c2)OCCO3)cc1NC(=O)c1cc(N(C)CCN(C)C)c2ncccc2c1 [Example 162, N-(5-(2,3-dihydrobenzo[b][1,4]dioxine-6-carboxamido)-2-methylphenyl)-8-((2-(dimethylamino)ethyl)(methyl)amino)quinoline-6-carboxamide]",6.01
10,"Cc1ccc(NC(=O)c2ccc3c(c2)OCCO3)cc1NC(=O)c1ccc(Nc2cccc(I)c2)nc1 [Example 38, N-(5-(2,3-dihydrobenzo[b][1,4]dioxine-6-carboxamido)-2-methylphenyl)-6-((3-iodophenyl)amino)nicotinamide]",7.39
11,"Cc1ccc(NC(=O)c2ccc3c(c2)OCCO3)cc1NC(=O)c1ccc2nc(N3CCOCC3)ccc2c1 [Example 32, N-(5-(2,3-dihydrobenzo[b][1,4]dioxine-6-carboxamido)-2-methylphenyl)-2-morpholinoquinoline-6-carboxamide]",6.18
12,"Cc1ccc2cc(C(=O)Nc3cc(NC(=O)c4ccc5c(c4)OCCCO5)ccc3C)ccc2n1 [Example 132, N-(5-(3,4-dihydro-2H-benzo[b][1,4]dioxepine-7-carboxamido)-2-methylphenyl)-2-methylquinoline-6-carboxamide]",6.65
13,"Cc1ccc(NC(=O)c2ccc3c(c2)OCCO3)cc1NC(=O)c1ccc2ccncc2c1 [Example 2, N-(5-(2,3-dihydrobenzo[b][1,4]dioxine-6-carboxamido)-2-methylphenyl)isoquinoline-7-carboxamide]",8.15
14,"Cc1cc(NCCCN(C)C)c2cc(C(=O)Nc3cc(NC(=O)c4ccc5c(c4)OCCO5)ccc3C)ccc2n1 [Example 111, N-(5-(2,3-dihydrobenzo[b][1,4]dioxine-6-carboxamido)-2-methylphenyl)-4-(3-(dimethylamino)propylamino)-2-methylquinoline-6-carboxamide]",5.74
15,"CCc1ccc2cc(C(=O)Nc3cc(NC(=O)c4ccc5c(c4)OCCO5)ccc3C)ccc2n1 [Example 77, N-(5-(2,3-dihydrobenzo[b][1,4]dioxine-6-carboxamido)-2-methylphenyl)-2-ethylquinoline-6-carboxamide]",7.59
16,"CCC(=O)NCCOc1ccc2cc(C(=O)Nc3cc(NC(=O)c4ccc5c(c4)OCCO5)ccc3C)ccc2n1 [Example 81, N-(5-(2,3-dihydrobenzo[b][1,4]dioxine-6-carboxamido)-2-methylphenyl)-2-(2-propionamidoethoxy)quinoline-6-carboxamide]",7.00
17,"Cc1ccc(NC(=O)c2ccc3c(c2)OCCO3)cc1NC(=O)c1ccc(-c2ccccc2)nc1 [Example 37, N-(5-(2,3-dihydrobenzo[b][1,4]dioxine-6-carboxamido)-2-methylphenyl)-6-phenylnicotinamide]",5.71
18,"Cc1ccc(NC(=O)c2ccc3c(c2)OCCO3)cc1NC(=O)c1ccc(N)nc1 [Example 104, 6-amino-N-(5-(2,3-dihydrobenzo[b][1,4]dioxine-6-carboxamido)-2-methylphenyl)nicotinamide]",6.32
19,"Cc1ccc(NC(=O)c2ccc3c(c2)OCCO3)cc1NC(=O)c1ccc(Nc2ccccc2)nc1 [Example 94, N-(5-(2,3-dihydrobenzo[b][1,4]dioxine-6-carboxamido)-2-methylphenyl)-6-(phenylamino)nicotinamide]",7.14
20,"COc1cccc(C(=O)Nc2cc(NC(=O)c3ccc4c(c3)OCCO4)ccc2C)c1 [Example 40, N-(3-(3-methoxybenzamido)-4-methylphenyl)-2,3-dihydrobenzo[b][1,4]dioxine-6-carboxamide]",5.93
21,"CNCC1CCc2cc(C(=O)Nc3cc(NC(=O)c4ccc5c(c4)OCCO5)ccc3C)ccc2N1 (stereo not drawn) [Example 86, N-(5-(2,3-dihydrobenzo[b][1,4]dioxine-6-carboxamido)-2-methylphenyl)-2-((methylamino)methyl)-1,2,3,4-tetrahydroquinoline-6-carboxamide]",6.71
22,"Cc1ccc(NC(=O)c2ccc3c(c2)OCCO3)cc1NC(=O)c1ccc2ncsc2c1 [Example 114, N-(5-(2,3-dihydrobenzo[b][1,4]dioxine-6-carboxamido)-2-methylphenyl)benzo[d]thiazole-6-carboxamide]",7.46
23,"Cc1ccc(NC(=O)c2ccc3c(c2)OCCO3)cc1NC(=O)c1ccc2c(c1)CCCCN2 [Example 82, N-(5-(2,3-dihydrobenzo[b][1,4]dioxine-6-carboxamido)-2-methylphenyl)-2,3,4,5-tetrahydro-1H-benzo[b]azepine-7-carboxamide]",6.81
24,"Cc1ccc(NC(=O)c2ccc3c(c2)OCCO3)cc1NC(=O)c1ccc2c(c1)CC[C@@H](C)N2 [Example 155, (R)—N-(5-(2,3-dihydrobenzo[b][1,4]dioxine-6-carboxamido)-2-methylphenyl)-2-methyl-1,2,3,4-tetrahydroquinoline-6-carboxamide]",6.64
25,"Cc1ccc2cc(C(=O)Nc3cc(NC(=O)c4ccc5c(c4)OCCO5)ccc3C)ccc2c1 [Example 108, N-(4-methyl-3-(6-methyl-2-naphthamido)phenyl)-2,3-dihydrobenzo[b][1,4]dioxine-6-carboxamide]",6.32
26,"Cc1ccc(NC(=O)c2ccc3c(c2)OCCO3)cc1NC(=O)c1ccc2c(c1)CCC(CN(C)C(=O)OC(C)(C)C)N2 (stereo not drawn) [Example 85, tert-butyl ((6-((5-(2,3-dihydrobenzo[b][1,4]dioxine-6-carboxamido)-2-methylphenyl)carbamoyl)-1,2,3,4-tetrahydroquinolin-2-yl)methyl)(methyl)carbamate]",5.94
27,"Cc1ccc(NC(=O)c2ccc3c(c2)OCCO3)cc1NC(=O)c1ccnc(N2CCOCC2)c1 [Example 98, N-(5-(2,3-dihydrobenzo[b][1,4]dioxine-6-carboxamido)-2-methylphenyl)-2-morpholinoisonicotinamide]",5.57
28,"Cc1ccc(NC(=O)c2ccc3c(c2)OCCO3)cc1NC(=O)c1ccc2ncccc2c1 [Example 1, N-(5-(2,3-dihydrobenzo[b][1,4]dioxine-6-carboxamido)-2-methylphenyl)quinoline-6-carboxamide]",8.30
29,"Cc1ccc(NC(=O)c2ccc3c(c2)OCCO3)cc1NC(=O)c1ccc2nc(C(C)O)ccc2c1 (stereo not drawn) [Example 142, N-(5-(2,3-dihydrobenzo[b][1,4]dioxine-6-carboxamido)-2-methylphenyl)-2-(1-hydroxyethyl)quinoline-6-carboxamide]",7.29
